One assay deals with MCF7 cells. Nature of the assay: Cell proliferation assay, MCF7 cells. Format: cell-based, human. As to conditions: 0.5 μM.
A further assay has as its target T1, CARM1 (Homo sapiens, UniProt Q86X55).
T1 sequence (Q86X55 1-608): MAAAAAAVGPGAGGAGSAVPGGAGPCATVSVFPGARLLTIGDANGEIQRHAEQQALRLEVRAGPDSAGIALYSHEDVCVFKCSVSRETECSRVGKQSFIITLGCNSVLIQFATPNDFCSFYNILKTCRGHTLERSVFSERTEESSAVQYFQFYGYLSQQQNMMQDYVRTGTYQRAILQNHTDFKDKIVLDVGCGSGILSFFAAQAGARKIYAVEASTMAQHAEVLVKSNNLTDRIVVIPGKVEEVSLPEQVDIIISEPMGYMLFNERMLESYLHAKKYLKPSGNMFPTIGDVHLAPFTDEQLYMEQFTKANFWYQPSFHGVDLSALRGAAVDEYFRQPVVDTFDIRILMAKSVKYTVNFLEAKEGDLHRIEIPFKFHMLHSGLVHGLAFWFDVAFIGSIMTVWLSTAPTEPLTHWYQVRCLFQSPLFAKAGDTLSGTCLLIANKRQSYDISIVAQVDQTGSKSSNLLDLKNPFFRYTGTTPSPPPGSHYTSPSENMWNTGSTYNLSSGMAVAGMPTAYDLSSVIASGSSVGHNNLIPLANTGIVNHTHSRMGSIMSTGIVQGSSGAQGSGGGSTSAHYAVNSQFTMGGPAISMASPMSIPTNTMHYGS
Put plainly: CARM1 degradation by western blot in MDA-MB-231 cells. Format: cell-based. The conditions noted are these: triple-negative MDA-MB-231 cells, 0.5 μM, after 24 or 48 h. The text has this: FIGS. 7A-7F. […] Cell lysates were collected and CARM1, methyl-BAF155, total BAF155, methyl-PABP1, and total PABP1 levels were detected by Western blot. […] Cell lysates were collected and CARM1, methyl-BAF155, total BAF155 levels were detected by Western blot. […] Cell proliferation rate normalized to day 0 was plotted. […] Migrated cells were stained with 1% crystal violet and the percentage of migrated cells were plotted. Data mean±s.d. ***. P≤0.001.
Western Blot Assay. Cells were harvested and washed with Dulbecco's phosphate-buffered saline (PBS), then lysed with 1×RIPA lysis buffer (50 mM Tris pH 7.5, 150 mM NaCl, 1% NP-40, 0.5% sodium deoxycholate, and 0.1% sodium dodecyl sulfate) supplemented with 1 mM phenylmethylsulfonyl fluoride, 10 μg/mL aprotinin, 1 μM leupeptin, and 10 μg/mL pepstatin on ice for 20 min. The supernatant was collected after spinning down at 15000 RPM at 4 degrees Celsius for 10 min. The concentration of whole lysates was quantified using a Bradford assay. 50-75 μg of cell lysates was boiled in 4× Laemmli Loading Dye and boiled at 100 degrees Celsius for 10 min. 25 μg were run in 8% SDS-PAGE gels and transferred to nitrocellulose membranes. Blots were blocked in 5% skim milk in PBST [PBS and 0.1% Tween 20] for 45 min, then incubated with primary antibodies at 4 degrees Celsius overnight. […]
A general note: A western blot detects proteins with antibodies after separation by electrophoresis.

The values below come from US20250222120A1, “SYNTHESIS OF NOVEL SMALL MOLECULE CARM1 DEGRADERS, COMPOUNDS FORMED THEREBY, AND PHARMACEUTICAL COMPOSITIONS CONTAINING THEM” (Wisconsin Alumni Research Foundation, priority 2024, published 2025).

For `CNCCN1CCC(c2cc(CN(C)C(=O)c3cccc(Oc4ccc(OCC(=O)N5CCC(CN6CCC(CN7CCN(CC(=O)N[C@H](C(=O)N8C[C@H](O)C[C@H]8C(=O)N[C@@H](C)c8ccc(-c9scnc9C)cc8)C(C)(C)C)CC7)CC6)CC5)cc4)c3)ccn2)CC1` [Compound 3b, (2S,4R)-1-((S)-3,3-dimethyl-2-(2-(4-((1-((1-(2-(4-(3-(methyl((2-(1-(2-(methylamino)ethyl)piperidin-4-yl)pyridin-4-yl)methyl)carbamoyl)phenoxy)phenoxy)acetyl)piperidin-4-yl)methyl)piperidin-4-yl)methyl)piperazin-1-yl)acetamido)butanoyl)-4-hydroxy-N—((S)-1-(4-(4-methylthiazol-5-yl)phenyl)ethyl)pyrrolidine-2-carboxamide], the Cell proliferation result with MCF7 cells is reported as “not to inhibit cell proliferation”. For the same molecule, the CARM1 degradation entry at CARM1 is on record as “effectively degraded”.
